These results are taken from paper PMC10916400, “Effect of the aggregated protein dye YAT2150 on Leishmania parasite viability” (Antimicrobial Agents and Chemotherapy, 2024).

Residues, ends and D or L forms follow the SMILES beside them.

Series [1] deals with L. infantum promastigotes. The series can be described thus: microbe, parasite or virus in culture. It is filed as cell-based, Leishmania infantum. The note with it: for growth inhibition: promastigotes, 72 h, 100 µM; for Selectivity index (CC50/IC50): CC50 in human umbilical vein endothelial cells / IC50 for promastigotes; for IC50: L. infantum promastigotes, in vitro. On the procedure:
L. infantum (MHOM/ES/2016/CATB101) promastigotes were maintained at 26°C in complete Schneider’s medium (Schneider’s insect medium supplemented with 10% FBS, 25 µg/mL gentamycin, 1% penicillin-streptomycin, and 1% sterile human urine, pH 6.7). For growth inhibition assays, promastigotes were used in the logarithmic growth phase, whereas for the infection of macrophages and generation of amastigotes they were used in the stationary phase. Axenic amastigotes were obtained following established protocols ([40], [57][–][59]); briefly, 1 × 10^7 promastigotes/mL in stationary phase were cultured in Schneider’s insect medium supplemented with 20% FBS, 25 µg/mL gentamycin, and 3.9 g/L of 2-(N-morpholino)ethanesulfonic acid, at pH 5.4 and 37°C. After 48 h, the typical rounded morphology of axenic amastigotes and their flagellum shortening could be observed. This culture was used within a week after its preparation.
In 96-well microtiter plates (Nunclon Delta surface; Thermo Fisher Scientific Inc.), serial dilutions (1:2) of the drugs or peptides were performed, either free or loaded in nanoformulations, in 100 µL of complete Schneider’s medium, to which one volume of 2 × 10^6 logarithmic growth-phase L. infantum promastigotes/mL in the same buffer was added. After 48 h, resazurin sodium salt was incorporated at a final concentration of 0.00125% and the plates were incubated at 26°C for another 24 h, when fluorescence from resorufin was measured as described above.

For a further series, the system named is promastigotes. Details: method as in PMID 16316700. The conditions noted are these: cited from earlier work.
A further series relates to L. infantum amastigotes. The series can be described thus: Amastigote growth inhibition assay (parasite rescue and transformation, RAW 264.7 macrophages). It is filed as cell-based, Leishmania infantum. The note with it: in vitro. On the procedure: Compound activity on amastigotes was determined following the parasite rescue and transformation assay ([61]). RAW 264.7 macrophages were seeded in 96-well microtiter plates at 10^5 cells/mL of DMEM supplemented with 10% FBS and 1% penicillin-streptomycin (complete DMEM, DMEMc) in a final volume of 200 µL per well. After an overnight incubation (37°C, 5% CO2) to allow cell adherence, the medium was removed and 10^6 L. infantum promastigotes/mL were added (1:10 macrophage:promastigote ratio) in DMEM supplemented with 2% FBS and 1% penicillin-streptomycin (DMEM 2% FBS). After 24 h, parasites not internalized by macrophages were removed by washing (3×, PBS) and dilutions in DMEM 2% FBS of free or liposome-encapsulated compounds were added. After 48 h, the medium was removed, cells were washed three times with PBS, and 40 µL of 0.05% SDS in complete Schneider’s medium was added; after 40 s, 160 additional µL/well of complete Schneider’s medium was added and plates were incubated at 26°C for another 48 h. Then, resazurin sodium salt was incorporated at a final concentration of 0.00125% and plates were incubated for 24 h more in the same conditions. Afterwards, resorufin fluorescence was measured as above.

The nature of a further series: in vitro. Format: cell-based. The note with it: human umbilical vein endothelial cells; for CC50: 48 h. Here is the method:
Human umbilical vein endothelial cells were maintained in M-199 supplemented with 10% fetal bovine serum (FBS) and 1% penicillin-streptomycin at 37°C, 5% CO2, and seeded in 96-well plates at a density of 50,000 cells/mL. After allowing cell adherence for 24 h, the medium was removed, and drugs or nanoformulations were added in M-199 supplemented with 1% penicillin-streptomycin. Plates were incubated for 48 h, and then, the medium in each well was replaced by 100 µL of M-199 containing penicillin-streptomycin and 0.00125% resazurin sodium salt (Sigma-Aldrich Corporation). Plates were incubated for 4 h, and resorufin fluorescence emission was measured (λex/em: 535/590 nm) in a Tecan Infinite 200 PRO equipment (Tecan Trading AG).

The mark [2] stands for this setting: Leishmania infantum, RAW264.7, L. infantum amastigotes in RAW 264.7 macrophages.
[3] abbreviates: L. infantum amastigotes in RAW 264.7 macrophages.

`CC[C@H](C)[C@H](NC(=O)[C@H](C)NC(C)=O)C(=O)N[C@@H](CO)C(=O)N[C@H](C(=O)N[C@@H](Cc1ccccc1)C(=O)N[C@@H](Cc1ccccc1)C(=O)N[C@@H](CC(C)C)C(=O)N[C@@H](CCC(=O)O)C(=O)N1CCC[C@H]1C(N)=O)C(C)C` (Ac-AISVFFLEP-NH2) registered a growth inhibition in series [1] of 0%.

On to `C[C@@H]1[C@H](O)[C@@H](C)/C=C/C=C/C=C/C=C/C=C/C=C/C=C/[C@H](O[C@@H]2O[C@H](C)[C@@H](O)[C@H](N)[C@@H]2O)C[C@@H]2O[C@](O)(C[C@@H](O)C[C@@H](O)[C@H](O)CC[C@@H](O)C[C@@H](O)CC(=O)O[C@H]1C)C[C@H](O)[C@H]2C(=O)O` [Amphotericin B], for which the IC50 with promastigotes is 40 nM.

On to `CC[C@H](C)[C@H](NC(=O)[C@H](Cc1ccccc1)NC(=O)[C@H](CC(N)=O)NC(=O)[C@H](CC(=O)O)NC(C)=O)C(=O)N[C@@H](Cc1ccccc1)C(=O)NCC(=O)N[C@@H](CCC(N)=O)C(N)=O` [DNFIFGQ, Acetyl-DNFIFGQ-amide] (Ac-DNFIFGQ-NH2), for which the growth inhibition in series [1] turned out to be 2%.

Consider `COc1cc2c(cc1OC)C(=O)C(CC1CCN(CCCNc3c4c(nc5cc(Cl)ccc35)CCCC4)CC1)C2` (stereo not drawn) [DONE3TCl], for which, in series [1], the “Selectivity index (CC50/IC50)” value amounted to 6.0. Moreover, the IC50 came out at 2090 ± 400 nM in series [1] (Leishmania infantum) and 620 ± 80 nM in the series with L. infantum amastigotes (setting [2]). The molecule also returned a CC50 in the series “in vitro” of 12600 ± 2200 nM.

On to `CC1=CC2Cc3nc4cc(Cl)ccc4c(NCCCCCCCNc4c5c(nc6ccccc46)CCCC5)c3C(C1)C2` (stereo not drawn) [HUP7TH], for which the IC50 in series [1] came out at 1230 ± 420 nM; in the series with L. infantum amastigotes (setting [3]), 920 ± 380 nM. The CC50 at 48 h in the series “in vitro” was determined as 7800 ± 3400 nM.

For `CC1=CC2Cc3nc4cc(Cl)ccc4c(NCCCCCCCCNc4c5c(nc6ccccc46)CCCC5)c3C(C1)C2` (stereo not drawn) [HUP8TH], the “Selectivity index (CC50/IC50)” value in series [1] is listed as 4.9. The results for the IC50 (in series [1] (Leishmania infantum); in the series with L. infantum amastigotes (setting [2])) were 990 ± 470 nM and 1630 ± 340 nM, respectively. This molecule also gave a half-maximal cytotoxic concentration (CC50) in the series “in vitro” of 4900 ± 1300 nM.

Consider `CC1=CC2Cc3nc4ccccc4c(NCCCCCCCCCCNc4c5c(nc6ccccc46)CCCC5)c3C(C1)C2` (stereo not drawn) [HUPH10TH], for which the half-maximal inhibitory concentration (IC50) in series [1] stood at 720 ± 110 nM; in the series with L. infantum amastigotes (setting [3]), 970 ± 210 nM. The 50% cytotoxic concentration (CC50) at 48 h in “in vitro” stood at 3400 ± 100 nM.

As to `CC1=CC2Cc3nc4cc(Cl)ccc4c(NCCCN(C)CCCNc4c5c(nc6cc(Cl)ccc46)CCCC5)c3C(C1)C2` (stereo not drawn) [HUPNTCl], in series [1], the “Selectivity index (CC50/IC50)” value turned out to be 3.1. The IC50 in series [1] (Leishmania infantum) amounted to 2030 ± 190 nM; in the series on L. infantum amastigotes (setting [2]) it was 1040 ± 210 nM. In addition, in the series “in vitro”, the midpoint of cytotoxicity, the CC50, lay at 6300 ± 500 nM.

In the case of `CC1=CC2Cc3nc4cc(Cl)ccc4c(NCCCN(C)CCCNc4c5c(nc6ccccc46)CCCC5)c3C(C1)C2` (stereo not drawn) [HUPNTH], the values for the half-maximal inhibitory concentration (IC50) (in series [1]; in the series on L. infantum amastigotes (setting [3])) were 2370 ± 1400 nM and 1520 ± 660 nM, respectively. This molecule had a CC50 at 48 h in the series “in vitro” of 3400 ± 1000 nM.

By IC50 is commonly meant the point on the concentration scale where inhibition reaches its midpoint. In general, CC50 refers to the concentration that lowers cell viability or growth by half.
